# In US20080161336A1, “Orally bioavailable CCI-779 formulations” (Wyeth, priority 2005, published 2008):
# Key:
# [1] = Bioavailability study: safety (adverse events, laboratory abnormalities, vital signs); type: in vivo, human
# Source text: On day 1 of each of the 3 study periods, the subjects received a single oral dose of 1 of 4 treatments (treatments A, B, C, or reference).
# On day 1 of each of the 3 study periods, the subjects received a single oral dose of 1 of 4 treatments (A, B, C, or reference).
# Water solubility = type: physicochemical
# [2] = Partition coefficient in 1-octanol/water system; type: physicochemical
# [3] = BCS classification system; type: physicochemical
# [4] = Stability of CCI-779 (aqueous, oxidation, hydroalcoholic granulation solution); type: physicochemical
# Source text: One obstacle towards the formulation of CCI-779 is its poor aqueous dissolution and low oral bioavailability. […] A CCI-779 formulation was developed that employed a wet granulation manufacturing process. See US Published Patent Application No. US-2004-0077677-A1. This process involved preparation of a hydroalcoholic granulation solution of CCI-779. Further, although the resulting tablets were stable and bioavailable, the preparation of the hydroalcoholic solution was very tedious.
# [5] = system: histologically diverse tumor cells; conditions: in vitro, cited from earlier work
compound,measurement,setting,value
"COC1C[C@@H]2CC[C@@H](C)[C@@](O)(O2)C(=O)C(=O)N2CCCC[C@H]2C(=O)O[C@H]([C@H](C)CC2CC[C@@H](OC(=O)C(C)(CO)CO)[C@H](OC)C2)CC(=O)[C@H](C)/C=C(\C)[C@@H](O)[C@@H](OC)C(=O)[C@H](C)C[C@H](C)/C=C/C=C/C=C/1C (stereo partly drawn) [CCI-779, Rapamycin 42-ester with 3-hydroxy-2-(hydroxymethyl)-2-methylpropionic acid]",severity of treatment-emergent AEs,[1]; all 45 treatment-emergent AEs,mild
same,subjects with aminotransferase elevations,"[1]; all treatments, 4 subjects",10%
same,subjects with white blood cells in the urine,"[1]; all treatments, 5 subjects",13%
same,deaths or other serious adverse events,[1]; during the study,No deaths or other serious adverse events occurred
same,"vital sign measurements, electrocardiogram results, physical examination findings",[1]; in vivo,No clinically significant trends
same,subjects with clinically significant laboratory abnormalities after dose administration,"[1]; number of subjects, all treatments",13
same,AEs considered by the investigator to be related to CCI-779 treatment,[1]; number of the 45 AEs,16
same,subjects with at least 1 treatment-emergent adverse event (AE),"[1]; of the 40 subjects who received CCI-779, all treatments",48%
same,solubility,Water solubility,< 1 µg/mL
same,Log PC,[2],≥ 4.1
same,BCS classification,[3],class II
same,aqueous stability,[4],aqueous instability
same,stability of hydroalcoholic granulation solution of CCI-779,[4]; after its preparation,precipitating within one day
same,growth of tumor cells,"[5]; CNS cancer, leukemia (T-cell), breast cancer, prostate cancer, melanoma lines among the most sensitive",inhibit the growth
same,cell cycle effect,[5],arrested cells in the G1 phase
